Measurements published in US20220267394A1, “COMPOUNDS FOR INDUCING TISSUE FORMATION AND USES THEREOF” (HISTIDE AG, priority 2015, published 2022).
Where no end group is shown, it is not given here.

Test system: hMSCs
Assay: Loss of stemness: STRO-1 expression by immunostaining
Type: cell-based, human
Procedure: The cells were first fixed for 20 min with 4% paraformaldehyde/PBS at 4° C. After fixation, the cells were permeabilized in PBS containing 1% Triton X-100 for 15 min. Runx2, Osterix, Stro-1, Vinculin, Phalloidin, Osteopontin, Sox2, Sox9 antibodies were visualized by treating the cells with 1% (v/v) specific monoclonal antibodies for 1 hour at 37° C. Then the samples were incubated with Alexa Fluor® 568 or 647 (F(ab′)2 fragment of IgG(H+L)) during 30 min at room temperature. The cell nuclei were counterstained in 20 ng/mL DAPI for 10 min at room temperature.
For this type of quantification the freeware image analysis ImageJ® software was used. The raw image was first converted to an 8-bit file, and then the unsharp mask feature was used (settings 1:0.2) to remove the image background (rolling ball radius 10). After smoothing, the resulting image, which appears similar to the original photomicrograph but with minimal background, was then converted to a binary image by setting a threshold. Threshold values were determined empirically by selecting a setting, which gave the most accurate binary image for a subset of randomly selected photomicrographs. The cell area was determined by manual delineation on raw fluorescent images. Total contact area and mean contact area per cell were calculated by “analyse particules” in ImageJ®. A minimum of 30 cells per condition were analyzed. Stro-1, CD-34+, and CD-105 expressions were determined using this procedure.
hMSCs were cultured on conventional cell culture plastic plates with or without the presence in the cell culture media of different GFR-binding compounds as described herein (SEQ ID NO: 50 to 88) in solution. […] This was probed by Stro-1 immunostaining after cell fixation as described in the Methods section. The quantification of Stro-1 positive contact numbers and areas was performed as described in the Methods section. A minimum of 30 cells per condition were analyzed. Stro-1 positive marrow cells are multipotential and capable of differentiating into multiple mesenchymal lineages including stromal cells with a phenotype resembling vascular smooth muscle cells that can support hematopoiesis, adipocytes, osteoblasts, and chondrocytes.
Using the method detailed in the description, the RMSD of 57 previously reported peptide sequences have been determined (Table 6) and correlated with the expression of STRO-1 in solution. […] One should note that it is commonly admitted that the expression of STRO-1 in a cell is indicative of a cell that is in a substantially non-differentiated state and the decrease of its expression of at least about 20% is indicative of a cell that has started a process of differentiation but which may not result in the differentiation of the cell. A decrease of more than 50% would be indicative of the presence of a significant shift towards a differentiated state. A decrease of more than 70% would be indicative of the presence of a very important shift towards a differentiated state. A sustained decrease (e.g. for at least 96 h) of more than 50% or 70% would be indicative of the presence of an even more important shift towards a differentiated state.
Likewise, using the method detailed in the description, the RMSD of 75 GFR-binding peptide sequence representatives of the invention have been determined (Table 8) and correlated with the expression of STRO-1. SEQ ID NO: 1 to 49 were tested in combination with a bioactive carrier as defined above in the Examples Section (i.e. titanium, ceramics, collagen, etc. . . . ), whereas SEQ ID NO: 2242 to 2267 were tested in solution.

[1] = Table 8, SEQ ID NO: 2242 to 2267 tested in solution
[2] = Table 6, previously reported peptides in solution, 400 ng/mL
[3] = Table 8, SEQ ID NO: 1 to 49 tested in combination with a bioactive carrier (titanium, ceramics, collagen, etc.)

Substance: 2263 (ASASPSSAPVDLKPLSMLYVIGKTPKIDHHKDMIVEESKSS; GFR-binding peptide) [compound 2263]
- STRO-1 expression (%) [1]: 16%

Substance: 2176 (MQCRELVTQVTEEPISQTEDGEEQESTTTPRLKGQKKE; Peptide reported in US20070083334, SEQ ID NO:958173) [compound 2176]
- STRO-1 expression (%) [2]: 85%

Substance: 2169 (IKSPARHSAPTHQEPLP; Peptide reported in WO2013040142, SEQ ID NO:3157977) [compound 2169]
- STRO-1 expression (%) [2]: 98%

Substance: 2170 (NPGASASPCCVSQDLEPLPIL; Peptide reported in JP06025288, SEQ ID NO:8) [compound 2170]
- STRO-1 expression (%) [2]: 86%

Substance: 49 (CTVPKPXXAPTQLSPISILYIDAANNVVYKQYEDMVVRA; GFR-binding peptide; MOD_RES (7), (8): Xaa is C or S) [compound 49]
- STRO-1 expression (%) [3]: 18%

Substance: 2164 (HIRSTTSSYVSLKSNITNRTIQTPTYSYT; Peptide reported in US20120216318, SEQ ID NO:347659) [compound 2164]
- STRO-1 expression (%) [2]: 98%

Substance: 2161 (DPLPIIYYVGRNVRVEQLSNMVVRACKCS; Comparative sequence) [compound 2161]
- STRO-1 expression (%) [2]: 97%

Substance: 2244 (VPTVVSAISTLYLRIKPHQGQHLKNYQVVVVE; GFR-binding peptide) [compound 2244]
- STRO-1 expression (%) [1]: 21%

Substance: 2213 (KPCCAPTQLSAISVLYFDDSSNVILKKYRNMVVRACGCR; Peptide reported in US20050250936, SEQ ID NO:123) [compound 2213]
- STRO-1 expression (%) [2]: 80%

Substance: 2214 (KPCCAPTELSAISVLYFDDSSNVILKKYRNMVVRACGCR; Peptide reported in US20050250936, SEQ ID NO:122) [compound 2214]
- STRO-1 expression (%) [2]: 83%

Substance: 2248 (VPTAAEPISMLYLDEYDKVVKFKYEAAAVS; GFR-binding peptide) [compound 2248]
- STRO-1 expression (%) [1]: 26%

Substance: 45 (CAAPASSSVPARLSPISLLYIDAANNVVYKQYEDM; not fully specified; ends and bridges not checked) [compound 45]
- STRO-1 expression (%) [3]: 24%

Substance: 2260 (VPQRLEPLTILYYDAANNVVEQLSNDMVKS; GFR-binding peptide) [compound 2260]
- STRO-1 expression (%) [1]: 23%

Substance: 2186 (SVPAVCSATSATGPYSSVTVTSWPSIVATGGTT; Peptide reported in EP1687419, SEQ ID NO:42) [compound 2186]
- STRO-1 expression (%) [2]: 92%

Substance: 32 (WWFWGKASSVPTELSPISTLYKDENEKVVLKYHYDMVVEGSGSR; not fully specified; ends and bridges not checked) [compound 32]
- STRO-1 expression (%) [3]: 21%

Substance: 2242 (VPTAASAISILYLDAANNVVLKNYQAAVVE; GFR-binding peptide) [compound 2242]
- STRO-1 expression (%) [1]: 17%

Substance: 2163 (TPTYSRPVQKAELTR; Peptide reported in US20130332133, SEQ ID NO:16645) [compound 2163]
- STRO-1 expression (%) [2]: 97%

Substance: 2162 (ENVNLKKYRNMIVKSCGCH; Peptide reported in US20040039543, SEQ ID NO:107) [compound 2162]
- STRO-1 expression (%) [2]: 97%

Substance: 2193 (DKPEESSSTPTHAQCICSSLSEAIVSSVLSTRLVLSQISLTRAKRAFE; Peptide reported in US20130333061, SEQ ID NO:139889) [compound 2193]
- STRO-1 expression (%) [2]: 87%

Substance: 2177 (VPTKLEPISVLYKDDMGVPTLKYHYEGMAVSECGCR; Peptide reported in US8969040, SEQ ID NO:89) [compound 2177]
- STRO-1 expression (%) [2]: 81%

Substance: 2159 (PIIYYVGRNVRVEQLSNMVVRA; Peptide reported in US5436228, SEQ ID NO:14) [compound 2159]
- STRO-1 expression (%) [2]: 92%

Substance: 2173 (TKPLSSLLFPNWNTTTTPTPPRP; Peptide reported in WO2013040142, SEQ ID NO:866827) [compound 2173]
- STRO-1 expression (%) [2]: 91%

Substance: 35 (GTPGPRNVQCRPTQVQLSAISTLYLAAALKNYQTLE; GFR-binding peptide) [compound 35]
- STRO-1 expression (%) [3]: 28%

Substance: 2206 (CIPKPSSAPTELSAISMLYL; Peptide reported in WO2009151288, SEQ ID NO:2) [compound 2206]
- STRO-1 expression (%) [2]: 83%

Substance: 2266 (RVPSTSSAPVKTSNITMQIMDNGRVLLLGEMSMIVEESGSL; GFR-binding peptide) [compound 2266]
- STRO-1 expression (%) [1]: 22%

Substance: 2194 (KGSEYEKLVVSGITQVYQSSLSWHGCKSCCEVQVXNLXILIRLYDVHYYN; Peptide reported in US20040172684, SEQ ID NO:47782; MOD_RES (35), (38): Xaa is A) [compound 2194]
- STRO-1 expression (%) [2]: 88%

Substance: 48 (CVPQRLSPISILYIDAANNVVYKQYE; GFR-binding peptide) [compound 48]
- STRO-1 expression (%) [3]: 18%

Substance: 2178 (SPISILVVPELDASLPEKRPSLDGFEALLVYNAPKA; Peptide reported in US20120246748, SEQ ID NO:119912) [compound 2178]
- STRO-1 expression (%) [2]: 82%

Substance: 29 (GTPGPKASSVPTELSPISTLYKDENEKVVLKYHYDMVVEGSGSR; not fully specified; ends and bridges not checked) [compound 29]
- STRO-1 expression (%) [3]: 21%

Substance: 2197 (LSLLAPPEPVWNHETSYGSDCHVPTNVNAISKMIDKSNHQTG; Peptide reported in US20140130203, SEQ ID NO:119179) [compound 2197]
- STRO-1 expression (%) [2]: 93%

Substance: 2175 (VGAAWWLREQGSPINTLAVPA; Peptide reported in WO2013040142, SEQ ID NO:133294) [compound 2175]
- STRO-1 expression (%) [2]: 88%

Substance: 31 (GTPGPPKPSSAPTQLNAISMLYFGGGGGLKKYRDMQHN; GFR-binding peptide) [compound 31]
- STRO-1 expression (%) [3]: 31%

Substance: 1 (CKVPKPSSAPTQLSAISTLYLDEYDKVVLKNYQNMVVRA; not fully specified; ends and bridges not checked) [compound 1]
- STRO-1 expression (%) [3]: 26%

Substance: 2257 (VPTGGEPLTTLYYNDKQQIIEQLSNGGEHS; GFR-binding peptide) [compound 2257]
- STRO-1 expression (%) [1]: 26%

Substance: 2167 (LNEVLRFCGIQVPEGDEPLTY; Peptide reported in WO2013040142, SEQ ID NO:89702) [compound 2167]
- STRO-1 expression (%) [2]: 99%
